The record followed here is patent US20100179185A1, “Novel Aminothienopyridinone Derivatives Processes for Preparing Them and Pharmaceutical Compositions Thereof” (UCB PHARMA, S.A., priority 2006, published 2010).

Assay [1] has as its system LPS stimulated TNF release in rat. Put plainly: Rat LPS induced TNF release. Format: in vivo. Conditions: 1.5 h, male Lewis rats, LPS 1 mg/kg i.v., plasma TNFα at 90 minutes, compound dosed p.o. As to the method: Male Lewis rats (180-200 g) are anaesthetized with Isofluor and injected i.v. with LPS (1 mg/kg) in a volume of 0.5 ml sterile saline. After 90 minutes blood is collected into heparin tubes for preparation of plasma samples. Plasma is stored at −80° C. prior to assay for TNFα by commercial ELISA.

The subject of assay [2] is LPS stimulated release of TNF from Human whole blood. Put plainly: LPS stimulation of whole blood, TNF-α release (ELISA). Format: cell-based. Conditions: LPS 1 μg/ml, 18 hours, 37° C., n=12. As to the method:
Inhibitor stocks (10 mM) are kept as a frozen solution (−20° C.) in DMSO. Serial dilutions of inhibitors are prepared in DMSO as 200-times concentrated stocks. Inhibitors are diluted 1 in 200 into tissue culture media, prewarmed to 37° C. and transferred to plates containing PBMC. PBMC and inhibitors are incubated together for 30 mins prior to addition of LPS. Inhibitors used in whole blood assays are prepared according to a different regime. Using the same stock solution, serial dilutions of inhibitors are prepared in DMSO. Inhibitors (14) are then diluted 1 in 500 straight into whole blood. Inhibitor is incubated with whole blood for 30 mins prior to the addition of LPS.
Whole blood is taken by venous puncture using heparinised vacutainers (Becton Dickinson), and 500 μl of blood aliquoted into each well of a 96 deep well plate. After the addition of inhibitor, blood is stimulated with an optimal dose of LPS (E coli strain B5:055, Sigma, at a final concentration of 1 μg ml^−1) and incubated at 37° C. without CO2 for 18 hours. TNF-α levels are measured from cell free supernatants by sandwich ELISA (R&D Systems, # DY210).
In general terms: In an ELISA, binding on a coated surface is turned into a signal by an enzyme label.

Broadly, the ED50 is the dose that gives a 50% effect, or the effect in half of the subjects. By IC50 is commonly meant the concentration needed to halve the response being measured. A low value points to higher potency. `Cc1cccc(Nc2c(C(=O)N3CCC[C@@H]3CO)sc3c2ccc(=O)n3-c2c(F)cccc2F)n1` [Compound 1] showed an ED50 in assay [1] of less than 10 mg/kg. For the same compound, the IC50 in assay [2] lay within 30 to 200 nM.
